The numbers were not newly measured in patent US7851459B2, “Methods for diluting water-stabilized antimicrobial organosilane compositions” (Vitec Speciality Chemicals Limited, priority 2007, dated 2010), which cites them from elsewhere.

For the series the following is noted: mixture of organosilane and water.

Take `CCCCCCCCCCCCCCCCCC[N+](C)(C)CCC[Si](OC)(OC)OC.[Cl-]` [3-(trimethoxysilyl)propyl-dimethyloctadecyl ammonium chloride]: the “time until mixture with water begins to lose effectiveness” value was “four to eight”.
